Data published in patent publication US20210254272A1, “TEXTILES HAVING ANTIMICROBIAL PROPERTIES” (Livinguard AG, priority 2015, published 2021).

Tested on: E. coli (ATCC 25922)
Test: AATCC Test Method 100-2012 antibacterial activity of the treated textile, after 25 washes and 12 abrasion cycles, contact time 60 minutes
Assay type: cell-based
Details: for Log reduction of antimicrobial performance: 1% o.w.f; for Log reduction of antimicrobial performance in 100 GSM Polyester fabric / Log reduction of antimicrobial performance in 100 GSM cotton fabric / Log reduction of antimicrobial performance in 300 GSM Polyester fabric / Log reduction of antimicrobial performance in 300 GSM cotton fabric / Performance Test-Log reduction of antimicrobial performance: 2 min; for Performance Test-Log reduction of antimicrobial performance: pad process, single agent 5 gm/lit
Description: The antibacterial activity of the textile was tested in accordance with AATCC Test Method 100-2012. Prior to the test, the fabric was cut into coupons of 2×4 inches and washed separately 25 times, and exposed to 12 abrasion cycles, as per US EPA protocol 90072PA4 (described further below). The tests were made against E. coli (ATCC 25922). Contact time was 60 minutes, after inoculating with 10^8 CFU per coupon.

[1] = exhaust 80° C., 60 min, curing 180° C., dosage 0.1% o.w.f
[2] = exhaust 80° C., 60 min, curing 180° C., dosage 0.2% o.w.f
[3] = exhaust 80° C., 60 min, curing 180° C., dosage 0.5% o.w.f
[4] = exhaust 80° C., 60 min, curing 180° C., dosage 0.8% o.w.f
[5] = exhaust 80° C., 60 min, curing 180° C., dosage 1.0% o.w.f

Q: Which “Log reduction of antimicrobial performance of each active ingredient” value (“Log reduction … of each active ingredient” below) (exhaust 60° C., solution dosage 1% o.w.f, process time 60 min) does the source give for Silver here?
A: 1.1 Log

Q: What about the “Log reduction … of each active ingredient” value (exhaust 60° C., solution dosage 1% o.w.f, process time 90 min) of the same substance?
A: 1.3 Log

Q: And the “Log reduction … of each active ingredient” value (exhaust 60° C., solution dosage 1% o.w.f, process time 120 min)?
A: 1.5 Log

Q: What about the “Log reduction … of each active ingredient” value (exhaust 60° C., solution dosage 1% o.w.f, process time 180 min) of the same substance?
A: 1.8 Log

Q: What about the “Log reduction … of each active ingredient” value (exhaust 60° C., solution dosage 1% o.w.f, process time 240 min) of the same substance?
A: 1.75 Log

Q: What about the “Log reduction of antimicrobial performance” value (exhaust 80° C., 60 min, curing 170° C., curing dwell time 0.5 min) of the same substance?
A: 0.2 Log

Q: And the “Log reduction of antimicrobial performance” value (exhaust 80° C., 60 min, curing 170° C., curing dwell time 1.0 min)?
A: 0.5 Log

Q: And the “Log reduction of antimicrobial performance” value (exhaust 80° C., 60 min, curing 170° C., curing dwell time 1.5 min)?
A: 0.7 Log

Q: And the “Log reduction of antimicrobial performance” value (exhaust 80° C., 60 min, curing 170° C., curing dwell time 2.0 min)?
A: 1.6 Log

Q: What about the “Log reduction of antimicrobial performance” value (exhaust 80° C., 60 min, curing 170° C., curing dwell time 2.5 min) of the same substance?
A: 1.1 Log

Q: What about the “Log reduction of antimicrobial performance” value (exhaust 80° C., 60 min, curing 170° C., curing dwell time 3.0 min) of the same substance?
A: 0.7 Log

Q: What about the “Log reduction of antimicrobial performance” value (exhaust 80° C., 60 min, curing 180° C., curing dwell time 0.5 min) of the same substance?
A: 1.1 Log

Q: What about the “Log reduction of antimicrobial performance” value (exhaust 80° C., 60 min, curing 180° C., curing dwell time 1.0 min) of the same substance?
A: 1.3 Log

Q: What about the “Log reduction of antimicrobial performance” value (exhaust 80° C., 60 min, curing 180° C., curing dwell time 1.5 min) of the same substance?
A: 1.5 Log

Q: What about the “Log reduction of antimicrobial performance” value (exhaust 80° C., 60 min, curing 180° C., curing dwell time 2.0 min) of the same substance?
A: 3.8 Log

Q: What about the “Log reduction of antimicrobial performance” value (exhaust 80° C., 60 min, curing 180° C., curing dwell time 2.5 min) of the same substance?
A: 3.7 Log

Q: And the “Log reduction of antimicrobial performance” value (exhaust 80° C., 60 min, curing 180° C., curing dwell time 3.0 min)?
A: 3.5 Log

Q: And the “Log reduction of antimicrobial performance” value (exhaust 80° C., 60 min, curing 190° C., curing dwell time 0.5 min)?
A: 0.6 Log

Q: And the “Log reduction of antimicrobial performance” value (exhaust 80° C., 60 min, curing 190° C., curing dwell time 1.0 min)?
A: 0.9 Log

Q: What about the “Log reduction of antimicrobial performance” value (exhaust 80° C., 60 min, curing 190° C., curing dwell time 1.5 min) of the same substance?
A: 1.5 Log

Q: What about the “Log reduction of antimicrobial performance” value (exhaust 80° C., 60 min, curing 190° C., curing dwell time 2.0 min) of the same substance?
A: 2.79 Log

Q: And the “Log reduction of antimicrobial performance” value (exhaust 80° C., 60 min, curing 190° C., curing dwell time 2.5 min)?
A: 2.2 Log

Q: And the “Log reduction of antimicrobial performance” value (exhaust 80° C., 60 min, curing 190° C., curing dwell time 3.0 min)?
A: 1.1 Log

Q: What about the “Log reduction of antimicrobial performance” value (exhaust 80° C., 60 min, curing temperature 100 ° C.) of the same substance?
A: 0.21 Log

Q: And the “Log reduction of antimicrobial performance” value (exhaust 80° C., 60 min, curing temperature 120 ° C.)?
A: 0.32 Log

Q: What about the “Log reduction of antimicrobial performance” value (exhaust 80° C., 60 min, curing temperature 140 ° C.) of the same substance?
A: 0.99 Log

Q: What about the “Log reduction of antimicrobial performance” value (exhaust 80° C., 60 min, curing temperature 160 ° C.) of the same substance?
A: 1.04 Log

Q: And the “Log reduction of antimicrobial performance” value (exhaust 80° C., 60 min, curing temperature 165 ° C.)?
A: 1.12 Log

Q: And the “Log reduction of antimicrobial performance” value (exhaust 80° C., 60 min, curing temperature 170 ° C.)?
A: 1.59 Log

Q: What about the “Log reduction of antimicrobial performance” value (exhaust 80° C., 60 min, curing temperature 175 ° C.) of the same substance?
A: 2.05 Log

Q: What about the “Log reduction of antimicrobial performance” value (exhaust 80° C., 60 min, curing temperature 180 ° C.) of the same substance?
A: 2.78 Log

Q: What about the “Log reduction of antimicrobial performance” value (exhaust 80° C., 60 min, curing temperature 185 ° C.) of the same substance?
A: 2.79 Log

Q: And the “Log reduction of antimicrobial performance” value (exhaust 80° C., 60 min, curing temperature 190 ° C.)?
A: 2.8 Log

Q: What about the “Log reduction of antimicrobial performance” value (exhaust 80° C., 60 min, curing temperature 195 ° C.) of the same substance?
A: 2.82 Log

Q: And the “Log reduction of antimicrobial performance in 100 GSM Polyester fabric” value (shortened to “Log reduction … in 100 GSM Polyester fabric”) [1]?
A: 0.56 Log

Q: And the “Log reduction of antimicrobial performance in 100 GSM cotton fabric” value (shortened to “Log reduction … in 100 GSM cotton fabric”) [1]?
A: 0.55 Log

Q: And the “Log reduction of antimicrobial performance in 300 GSM Polyester fabric” value (“Log reduction … in 300 GSM Polyester fabric” below) [1]?
A: 0.54 Log

Q: And the “Log reduction of antimicrobial performance in 300 GSM cotton fabric” value (“Log reduction … in 300 GSM cotton fabric” for short) [1]?
A: 0.57 Log

Q: What about the “Log reduction … in 100 GSM Polyester fabric” value [2] of the same substance?
A: 1.45 Log

Q: What about the “Log reduction … in 100 GSM cotton fabric” value [2] of the same substance?
A: 1.35 Log

Q: What about the “Log reduction … in 300 GSM Polyester fabric” value [2] of the same substance?
A: 1.48 Log

Q: What about the “Log reduction … in 300 GSM cotton fabric” value [2] of the same substance?
A: 1.35 Log

Q: And the “Log reduction … in 100 GSM Polyester fabric” value [3]?
A: 1.77 Log

Q: And the “Log reduction … in 100 GSM cotton fabric” value [3]?
A: 1.67 Log

Q: What about the “Log reduction … in 300 GSM Polyester fabric” value [3] of the same substance?
A: 1.79 Log

Q: And the “Log reduction … in 300 GSM cotton fabric” value [3]?
A: 1.67 Log

Q: What about the “Log reduction … in 100 GSM Polyester fabric” value [4] of the same substance?
A: 1.85 Log

Q: What about the “Log reduction … in 100 GSM cotton fabric” value [4] of the same substance?
A: 1.84 Log

Q: And the “Log reduction … in 300 GSM Polyester fabric” value [4]?
A: 1.85 Log

Q: What about the “Log reduction … in 300 GSM cotton fabric” value [4] of the same substance?
A: 1.87 Log

Q: What about the “Log reduction … in 100 GSM Polyester fabric” value [5] of the same substance?
A: 2.68 Log

Q: What about the “Log reduction … in 100 GSM cotton fabric” value [5] of the same substance?
A: 2.87 Log

Q: And the “Log reduction … in 300 GSM Polyester fabric” value [5]?
A: 2.65 Log

Q: What about the “Log reduction … in 300 GSM cotton fabric” value [5] of the same substance?
A: 2.88 Log

Q: What about the “Log reduction … of each active ingredient” value (exhaust 80° C., 60 min, dosage 1% o.w.f (test up to 5% o.w.f)) of the same substance?
A: 2.35 Log

Q: And the “Log reduction … of each active ingredient” value (exhaust 80° C., 60 min, dosage 2% o.w.f)?
A: 2.36 Log

Q: And the “Log reduction … of each active ingredient” value (exhaust 80° C., 60 min, dosage 3% o.w.f)?
A: 2.37 Log

Q: What about the “Log reduction … of each active ingredient” value (exhaust 80° C., 60 min, dosage 4% o.w.f) of the same substance?
A: 2.38 Log

Q: What about the “Log reduction … of each active ingredient” value (exhaust 80° C., 60 min, dosage 5% o.w.f) of the same substance?
A: 2.41 Log

Q: And the “Log reduction … of each active ingredient” value (exhaust 80 ° C., solution dosage 1% o.w.f, process time 10 min)?
A: 0.5 Log

Q: What about the “Log reduction … of each active ingredient” value (exhaust 80 ° C., solution dosage 1% o.w.f, process time 20 min) of the same substance?
A: 1 Log

Q: And the “Log reduction … of each active ingredient” value (exhaust 80 ° C., solution dosage 1% o.w.f, process time 30 min)?
A: 1.4 Log

Q: What about the “Log reduction … of each active ingredient” value (exhaust 80 ° C., solution dosage 1% o.w.f, process time 40 min) of the same substance?
A: 1.9 Log

Q: What about the “Log reduction … of each active ingredient” value (exhaust 80 ° C., solution dosage 1% o.w.f, process time 50 min) of the same substance?
A: 2.4 Log

Q: What about the “Log reduction … of each active ingredient” value (exhaust 80 ° C., solution dosage 1% o.w.f, process time 60 min) of the same substance?
A: 2.8 Log

Q: What about the “Log reduction … of each active ingredient” value (exhaust 80 ° C., solution dosage 1% o.w.f, process time 70 min) of the same substance?
A: 2.8 Log

Q: What about the “Log reduction … of each active ingredient” value (exhaust 80 ° C., solution dosage 1% o.w.f, process time 80 min) of the same substance?
A: 2.8 Log

Q: What about the “Log reduction … of each active ingredient” value (exhaust 80 ° C., solution dosage 1% o.w.f, process time 90 min) of the same substance?
A: 2.9 Log

Q: And the “Performance Test-Log reduction of antimicrobial performance” value (shortened to “Performance Test-Log reduction”) (curing 120° C.)?
A: 0.02 Log

Q: And the “Performance Test-Log reduction” value (curing 140° C.)?
A: 0.24 Log

Q: And the “Performance Test-Log reduction” value (curing 150° C.)?
A: 0.31 Log

Q: And the “Performance Test-Log reduction” value (curing 160° C.)?
A: 0.53 Log
